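Each compound was tested at five concentrations against cells in 96-well plates for 48 hours. The concentration for 50% growth inhibition is given as GI50. TGI: total growth inhibition.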

Among the data in PubChem BioAssay (NCI) are GI50 and TGI values, retold here.

One test concerns SK-MEL-2 melanoma. The test can be described thus: inhibition of tumour cell growth, NCI panel, 48 h.
As to `OCCCCCNCc1cc2cc3c(cc2c2cc(OCc4ccccc4)ccc12)OCO3`, the GI50 is 1.74 µM and the TGI is 3.24 µM.

Regarding `C/C(=N\NC(=S)NC(CCC(=O)O)C(=O)O)c1ccccn1` (stereo not given), the TGI was greater than 100 µM.

As for `C#CC1(O)CCC2C3CCc4cc(Oc5nc(F)nc(-c6c7ccccc7c7sc8ccccc8n67)n5)ccc4C3CC[C@@]21C` (stereo not given in full), the TGI is greater than 100 µM.

For `Cc1c2c(nn1-c1ccc(S(=O)(=O)/N=C3\SCCC(=O)N3c3ccccc3)cc1)-c1ccccc1CC2`, the GI50 is greater than 100 µM and the TGI was greater than 100 µM.

For the compound `COc1ccc(S(=O)(=O)NNS(C)(=O)=O)cc1`, the TGI was greater than 100 µM.

`O=C(/C=C\c1ccc(Cl)c(Cl)c1)c1ccc(Cl)cc1Cl`: the TGI was 41.9 µM.

On to `C=C1C(=O)O[C@H]2[C@H]1CC/C(COC(=O)c1c[nH]c3ccccc13)=C\CC[C@@]1(C)O[C@@H]21`, for which the GI50 is 0.239 µM and the TGI is 0.612 µM.

`O=C1NCC2(CCN(CCCC3(c4ccc(F)cc4)OCCO3)CC2)N1c1ccccc1` came in with a TGI greater than 100 µM.

For `COc1cc(/C=C2\CN(S(=O)(=O)c3ccccc3)C/C(=C\c3cc(CN4CCCC4)c(O)c(OC)c3)C2=O)cc(CN2CCCC2)c1O`, the GI50 was 2.03 µM and the TGI was 5.02 µM.

`CC(=O)/C(=C\c1cccc([N+](=O)[O-])c1)C(=O)Nc1ccccc1C` showed a TGI greater than 100 µM.

As to `CCN1c2ccccc2C(C(SC)S(=O)(=O)c2ccc(C)cc2)c2c1[nH]c(=O)n(C)c2=O` (stereo not given), the TGI was greater than 100 µM.

The compound `COC(OC)C(C)CC(=O)N(C)C` (stereo not given) displayed a TGI greater than 100 µM.

The next test relates to UO-31 renal. Nature of the test: inhibition of tumour cell growth, NCI panel, 48 h.
The compound `CCOC(=O)c1cc2nc3ccccc3c(=O)n2c2ccccc12` registered a TGI greater than 10 µM.

`Clc1ccc(C(c2ccc(Cl)cc2)c2ccccn2)cc1` gave a TGI of 30.5 µM.

`CC(C)=Cc1cc(C(=O)Nc2ccc(Cl)c(Cl)c2)nc(N)n1` registered a TGI greater than 100 µM.

For `Cn1cnc([N+](=O)[O-])c1Sc1nc2ccccc2[nH]1`, the TGI worked out at 51.9 µM.

Compound `CCCCCCN(CCCCCC)C(=O)Cc1c2n(c3ccccc13)Cc1ccccc1-2` returned a TGI greater than 100 µM.

`CCCCCCCCC/C=C1\CCC(CN2CCOCC2)C1=O` (stereo not given) yielded a TGI of 14.9 µM.

For `CC(=O)OC1COC(n2ccc3cc(Br)c([N+](=O)[O-])cc32)C(OC(C)=O)C1OC(C)=O` (stereo not given), the TGI was found to be 42.8 µM.

For `CCOC(=O)NC(=O)c1cn(CCCO)c(=O)[nH]c1=O`, the TGI was greater than 100 µM.

Regarding `CN(C)c1nc(=Nc2ccc(N=c3nc(N(C)C)ss3)cc2)ss1`, the TGI was greater than 81.6 µM.

Take `O=[N+]([O-])C(/C=C(\Cl)n1nnc2ccccc21)=C(/Cl)n1nnc2ccccc21`: the TGI was greater than 100 µM.

As to `CCc1cc(Cc2cc(CC)c(NC(=O)C(=O)Cc3ccccn3)c(CC)c2Cl)c(Cl)c(CC)c1NC(=O)C(=O)Cc1ccccn1`, the TGI is greater than 100 µM.

Take `C[Si](C)(C)C1(Sc2ccccc2)SCCCS1`: the TGI was 39.8 µM.

Compound `c1ccc(COc2cccc3ccc[n+](Cc4ccccc4)c23)cc1` showed a TGI of 75.2 µM.

On to `ClCc1cccc(Cn2cnc3ncnc(Cl)c32)c1`, for which the GI50 was 1.54 µM and the TGI is 3.11 µM.

With `CC1(C)C2CCC(=O)C1CC2` (stereo not given), the TGI is greater than 100 µM.

On to `O=S1(=O)OCCOS(=O)(=O)C1Br`, for which the TGI is greater than 100 µM.

As for `CCOC(=O)C(=C=C=C(c1ccccc1)c1ccccc1)C(=O)OCC`, the TGI was 34.1 µM.

Compound `CC1=CC(O)(c2ccc(-c3ccccc3Cl)cc2)OC1=O` (stereo not given) showed a TGI greater than 100 µM.

For the compound `OCCCCCNCc1cc2cc3c(cc2c2cc(OCc4ccccc4)ccc12)OCO3`, the GI50 was 1.66 µM and the TGI came to 3.27 µM.

For `C/C(=N\NC(=S)NC(CCC(=O)O)C(=O)O)c1ccccn1` (stereo not given), the TGI was greater than 100 µM.

`C#CC1(O)CCC2C3CCc4cc(Oc5nc(F)nc(-c6c7ccccc7c7sc8ccccc8n67)n5)ccc4C3CC[C@@]21C` (stereo not given in full) gave a TGI greater than 100 µM.

In the case of `Cc1c2c(nn1-c1ccc(S(=O)(=O)/N=C3\SCCC(=O)N3c3ccccc3)cc1)-c1ccccc1CC2`, the GI50 was greater than 100 µM and the TGI was greater than 100 µM.

The compound `Cc1ccc(NC(=O)c2cc3cc(N=Nc4ccccc4C(=O)O)ccc3oc2=O)cc1` displayed a TGI greater than 100 µM.

For the compound `COc1ccc(S(=O)(=O)NNS(C)(=O)=O)cc1`, the TGI is greater than 100 µM.

Consider `O=C(/C=C\c1ccc(Cl)c(Cl)c1)c1ccc(Cl)cc1Cl`, for which the GI50 is greater than 100 µM and the TGI was greater than 100 µM.

`C=C1C(=O)O[C@H]2[C@H]1CC/C(COC(=O)c1c[nH]c3ccccc13)=C\CC[C@@]1(C)O[C@@H]21`: the GI50 was 0.165 µM and the TGI was 0.313 µM.

In the case of `COc1cc(/C=C2\CN(S(=O)(=O)c3ccccc3)C/C(=C\c3cc(CN4CCCC4)c(O)c(OC)c3)C2=O)cc(CN2CCCC2)c1O`, the GI50 is 1.92 µM and the TGI was determined as 5.31 µM.

Turning to `CC(=O)/C(=C\c1cccc([N+](=O)[O-])c1)C(=O)Nc1ccccc1C`, the TGI was greater than 100 µM.

Turning to `CCN1c2ccccc2C(C(SC)S(=O)(=O)c2ccc(C)cc2)c2c1[nH]c(=O)n(C)c2=O` (stereo not given), the TGI is greater than 100 µM.

Turning to `COC(OC)C(C)CC(=O)N(C)C` (stereo not given), the TGI was greater than 100 µM.

The subject of the next test is MDA-MB-231 breast. The test can be described thus: inhibition of tumour cell growth, NCI panel, 48 h.
On to `CCOC(=O)c1cc2nc3ccccc3c(=O)n2c2ccccc12`, for which the TGI is greater than 10 µM.

`CCCCCCCCC/C=C1\CCC(CN2CCOCC2)C1=O` (stereo not given) gave a TGI of 11.2 µM.

With `O=[N+]([O-])C(/C=C(\Cl)n1nnc2ccccc21)=C(/Cl)n1nnc2ccccc21`, the TGI is greater than 100 µM.

Turning to `ClCc1cccc(Cn2cnc3ncnc(Cl)c32)c1`, the GI50 is 1.72 µM and the TGI came to 3.4 µM.

`CC1(C)C2CCC(=O)C1CC2` (stereo not given): the TGI was greater than 100 µM.

For `OCCCCCNCc1cc2cc3c(cc2c2cc(OCc4ccccc4)ccc12)OCO3`, the GI50 was 1.3 µM and the TGI is 2.56 µM.

For `Cc1c2c(nn1-c1ccc(S(=O)(=O)/N=C3\SCCC(=O)N3c3ccccc3)cc1)-c1ccccc1CC2`, the GI50 was 35.1 µM and the TGI is greater than 100 µM.

In the case of `C=C1C(=O)O[C@H]2[C@H]1CC/C(COC(=O)c1c[nH]c3ccccc13)=C\CC[C@@]1(C)O[C@@H]21`, the GI50 is 0.197 µM and the TGI is 0.447 µM.

`O=C1NCC2(CCN(CCCC3(c4ccc(F)cc4)OCCO3)CC2)N1c1ccccc1` yielded a TGI greater than 100 µM.
